For orientation: IC50 means the concentration that inhibits the measured activity by half. Low readings indicate greater potency in that assay, high ones weaker potency in that assay.

This experiment has as its target T1, EZH2 within the PRC2 complex (Homo sapiens, UniProt Q15910).
T1 construct: FLAG; made in house; host or cells: Sf9 cells
The experiment in a line: EZH2 methyltransferase scintillation proximity assay (SPA), PRC2 complex. The class given is biochemical. As to conditions: inhibition of methyltransferase activity, 3H-SAM, HeLa mononucleosome substrate, foregoing or an analogous assay. On the technique in general: Scintillation proximity formats need no separation of bound from free tracer.

T1 sequence (Q15910 whole entry): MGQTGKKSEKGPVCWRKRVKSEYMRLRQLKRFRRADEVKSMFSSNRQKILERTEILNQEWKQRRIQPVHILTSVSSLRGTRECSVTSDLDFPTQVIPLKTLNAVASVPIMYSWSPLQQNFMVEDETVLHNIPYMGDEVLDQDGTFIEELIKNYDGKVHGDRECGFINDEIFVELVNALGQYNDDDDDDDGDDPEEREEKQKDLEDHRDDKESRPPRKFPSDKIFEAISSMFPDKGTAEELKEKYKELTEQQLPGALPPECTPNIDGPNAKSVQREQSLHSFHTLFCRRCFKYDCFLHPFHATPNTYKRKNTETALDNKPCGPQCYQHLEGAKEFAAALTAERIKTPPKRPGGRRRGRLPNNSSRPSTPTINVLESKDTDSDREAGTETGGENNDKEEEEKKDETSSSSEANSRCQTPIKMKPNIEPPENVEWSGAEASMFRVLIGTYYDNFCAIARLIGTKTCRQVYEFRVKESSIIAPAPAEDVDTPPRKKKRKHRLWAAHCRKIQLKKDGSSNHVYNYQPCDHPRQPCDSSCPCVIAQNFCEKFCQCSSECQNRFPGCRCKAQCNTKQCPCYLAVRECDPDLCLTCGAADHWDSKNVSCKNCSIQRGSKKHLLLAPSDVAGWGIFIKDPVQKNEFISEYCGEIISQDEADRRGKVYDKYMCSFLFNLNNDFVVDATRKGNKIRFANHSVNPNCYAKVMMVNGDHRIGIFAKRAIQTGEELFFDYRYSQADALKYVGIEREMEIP
T1 sequence (O75530 whole entry partner): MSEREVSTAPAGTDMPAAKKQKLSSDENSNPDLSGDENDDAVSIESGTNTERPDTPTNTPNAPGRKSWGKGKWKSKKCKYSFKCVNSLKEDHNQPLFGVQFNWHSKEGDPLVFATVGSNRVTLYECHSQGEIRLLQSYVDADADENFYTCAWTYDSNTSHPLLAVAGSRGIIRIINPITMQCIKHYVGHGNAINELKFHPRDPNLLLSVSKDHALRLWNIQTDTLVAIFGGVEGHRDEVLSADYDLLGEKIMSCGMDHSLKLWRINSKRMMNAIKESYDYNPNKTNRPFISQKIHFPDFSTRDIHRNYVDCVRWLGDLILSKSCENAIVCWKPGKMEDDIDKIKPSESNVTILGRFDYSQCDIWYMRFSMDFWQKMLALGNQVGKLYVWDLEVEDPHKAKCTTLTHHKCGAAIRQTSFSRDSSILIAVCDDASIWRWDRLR
T1 sequence (Q15022 whole entry partner): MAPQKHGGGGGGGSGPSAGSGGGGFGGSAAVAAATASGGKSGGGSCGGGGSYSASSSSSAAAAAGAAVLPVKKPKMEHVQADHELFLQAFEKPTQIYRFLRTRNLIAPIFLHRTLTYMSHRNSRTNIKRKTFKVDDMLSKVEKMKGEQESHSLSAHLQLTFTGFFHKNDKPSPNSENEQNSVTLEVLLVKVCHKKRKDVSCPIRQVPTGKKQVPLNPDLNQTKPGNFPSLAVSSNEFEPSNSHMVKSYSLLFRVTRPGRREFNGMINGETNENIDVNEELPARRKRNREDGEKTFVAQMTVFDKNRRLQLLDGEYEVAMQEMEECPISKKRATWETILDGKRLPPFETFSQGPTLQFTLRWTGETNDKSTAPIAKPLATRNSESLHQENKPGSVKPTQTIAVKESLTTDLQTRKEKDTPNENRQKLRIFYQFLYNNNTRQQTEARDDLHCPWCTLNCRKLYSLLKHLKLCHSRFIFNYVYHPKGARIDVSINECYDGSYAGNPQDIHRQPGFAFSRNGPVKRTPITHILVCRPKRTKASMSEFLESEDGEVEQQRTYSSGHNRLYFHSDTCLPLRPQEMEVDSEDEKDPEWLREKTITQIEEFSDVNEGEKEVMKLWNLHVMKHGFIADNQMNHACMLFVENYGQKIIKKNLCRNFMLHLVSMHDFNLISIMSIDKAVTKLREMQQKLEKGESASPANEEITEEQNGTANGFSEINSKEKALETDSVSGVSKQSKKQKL
T1 sequence (Q09028 whole entry partner): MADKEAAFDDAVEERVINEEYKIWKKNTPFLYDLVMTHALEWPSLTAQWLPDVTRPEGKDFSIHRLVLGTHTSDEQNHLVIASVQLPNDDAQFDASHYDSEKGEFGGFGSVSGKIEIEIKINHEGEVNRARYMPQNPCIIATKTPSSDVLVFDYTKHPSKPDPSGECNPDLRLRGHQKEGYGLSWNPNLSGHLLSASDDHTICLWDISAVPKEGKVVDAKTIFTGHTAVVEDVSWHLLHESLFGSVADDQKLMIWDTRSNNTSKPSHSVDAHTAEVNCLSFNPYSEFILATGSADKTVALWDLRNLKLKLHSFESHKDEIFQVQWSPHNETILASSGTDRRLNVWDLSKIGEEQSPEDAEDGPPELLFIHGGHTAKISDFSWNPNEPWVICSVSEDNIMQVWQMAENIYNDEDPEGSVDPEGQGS
T1 sequence (Q6ZN18 whole entry partner): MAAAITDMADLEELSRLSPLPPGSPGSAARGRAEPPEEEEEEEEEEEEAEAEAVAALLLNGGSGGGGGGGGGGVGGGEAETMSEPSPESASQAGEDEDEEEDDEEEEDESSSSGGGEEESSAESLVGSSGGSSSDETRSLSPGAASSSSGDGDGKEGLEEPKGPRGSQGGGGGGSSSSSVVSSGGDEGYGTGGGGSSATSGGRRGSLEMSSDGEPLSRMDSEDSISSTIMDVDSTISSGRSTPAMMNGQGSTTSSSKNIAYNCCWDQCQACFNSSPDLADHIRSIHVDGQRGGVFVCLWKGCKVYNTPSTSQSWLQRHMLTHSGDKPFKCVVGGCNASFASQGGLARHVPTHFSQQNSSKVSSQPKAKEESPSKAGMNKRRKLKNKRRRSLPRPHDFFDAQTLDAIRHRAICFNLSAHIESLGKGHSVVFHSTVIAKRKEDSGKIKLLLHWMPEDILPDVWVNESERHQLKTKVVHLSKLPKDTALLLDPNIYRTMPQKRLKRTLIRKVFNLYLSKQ
Procedure: Compounds contained herein were evaluated for their ability to inhibit the methyltransferase activity of EZH2 within the PRC2 complex. Human PRC2 complex was prepared by co-expressing each of the 5 member proteins (FLAG-EZH2, EED, SUZ12, RbAp48, AEBP2) in Sf9 cells followed by co-purification. Enzyme activity was measured in a scintillation proximity assay (SPA) where a tritiated methyl group is transferred from 3H-SAM to a lysine residue on Histone H3 of a mononucleosome, purified from HeLa cells. Mononucleosomes were captured on SPA beads and the resulting signal is read on a ViewLux plate reader.
Part A. Compound Preparation
Prepare 10 mM stock of compounds from solid in 100% DMSO. • 2. Set up an 11-point serial dilution (1:3 dilution, top concentration 10 mM) in 100% DMSO for each test compound in a 384 well plate leaving columns 6 and 18 for DMSO controls. • 3. Dispense 100 nL of compound from the dilution plate into reaction plates (Grenier Bio-One, 384-well, Cat#784075). Part B. Reagent Preparation Prepare the following solutions: • 1. […] Read plates • 1. Read the assay plates on the Viewlux Plate Reader utilizing the 613 nm emission filter with a 300 s read time. […]
Percent inhibition was calculated relative to the DMSO control for each compound concentration and the resulting values were fit using standard IC50 fitting parameters within the ABASE data fitting software package.

As to “N-[(4,6-Dimethyl-2-oxo-1,2-dihydro-3-pyridinyl)methyl]-1-(1-methylethyl)-6-(2-phenylethyl)-1H-pyrazolo[3,4-b]pyridine-4-carboxamide [Ex 32]”, the IC50 amounted to 856 nM.
With “6-{[4-(Aminocarbonyl)phenyl]amino}-N-[(4,6-dimethyl-2-oxo-1,2-dihydro-3-pyridinyl)methyl]-1-(1-methylethyl)-1H-pyrazolo[3,4-b]pyridine-4-carboxamide [Ex 86]” the figure was 142 nM.

Source of the values: patent publication US9073924B2, “Azaindazoles” (GlaxoSmithKline LLC, priority 2011, dated 2015).
